# According to ChEMBL document CHEMBL4177594, “Design, synthesis, and evaluation of salicyladimine derivatives as multitarget-directed ligands against Alzheimer's disease” (Bioorg Med Chem, 2017):
# Calls of active or inactive are those of the source. The calls are words filed in the database; no cut-off is given here.
# Key:
# [1] = system: PC-12; assay: Neuroprotective activity against H2O2-induced apoptosis in rat PC12 cells assessed as early apoptosis cells level at 6.25 uM after 24 hrs by Annexin V/FITC/propidium iodide staining-based flow cytometry (reference value: 1.8%); assay type: functional
# [2] = system: PC-12; assay: Neuroprotective activity against H2O2-induced apoptosis in rat PC12 cells assessed as apoptotic cells at 25 uM after 24 hrs by Annexin V/FITC/propidium iodide staining-based flow cytometry (reference value: 52.3%); assay type: functional
# [3] = system: PC-12; assay: Neuroprotective activity against H2O2-induced apoptosis in rat PC12 cells assessed as early apoptosis cells level at 25 uM after 24 hrs by Annexin V/FITC/propidium iodide staining-based flow cytometry (reference value: 1.8%); assay type: functional
# [4] = Metal chelating activity assessed as compound-Fe2+ complex formation after 30 mins by UV-Vis spectrophotometry based Job's plot
# [5] = system: PC-12; assay: Neuroprotective activity against H2O2-induced apoptosis in rat PC12 cells assessed as apoptotic cells at 12.5 uM after 24 hrs by Annexin V/FITC/propidium iodide staining-based flow cytometry (reference value: 52.3%); assay type: functional
# [6] = system: PC-12; assay: Neuroprotective activity against H2O2-induced apoptosis in rat PC12 cells assessed as early apoptosis cells level at 12.5 uM after 24 hrs by Annexin V/FITC/propidium iodide staining-based flow cytometry (reference value: 1.8%); assay type: functional
# [7] = system: PC-12; assay: Neuroprotective activity against H2O2-induced apoptosis in rat PC12 cells assessed as necrosis cells level at 12.5 uM after 24 hrs by Annexin V/FITC/propidium iodide staining-based flow cytometry (reference value: 0.1%); assay type: functional
# [8] = system: PC-12; assay: Neuroprotective activity against H2O2-induced apoptosis in rat PC12 cells assessed as viable cells level at 12.5 uM after 24 hrs by Annexin V/FITC/propidium iodide staining-based flow cytometry (reference value: 96.2%); assay type: functional
# [9] = system: PC-12; assay: Neuroprotective activity against H2O2-induced apoptosis in rat PC12 cells assessed as viable cells level at 6.25 uM after 24 hrs by Annexin V/FITC/propidium iodide staining-based flow cytometry (reference value: 96.2%); assay type: functional
# [10] = system: PC-12; assay: Neuroprotective activity against H2O2-induced apoptosis in rat PC12 cells assessed as late apoptosis cells level at 50 uM after 24 hrs by Annexin V/FITC/propidium iodide staining-based flow cytometry (reference value: 1.9%); assay type: functional
# [11] = system: PC-12; assay: Neuroprotective activity against H2O2-induced apoptosis in rat PC12 cells assessed as apoptotic cells at 50 uM after 24 hrs by Annexin V/FITC/propidium iodide staining-based flow cytometry (reference value: 52.3%); assay type: functional
# [12] = system: PC-12; assay: Neuroprotective activity against H2O2-induced apoptosis in rat PC12 cells assessed as necrosis cells level at 6.25 uM after 24 hrs by Annexin V/FITC/propidium iodide staining-based flow cytometry (reference value: 0.1%); assay type: functional
# [13] = Antioxidant activity assessed as DPPH radical scavenging activity after 30 mins; assay type: functional
# [14] = system: PC-12; assay: Cytotoxicity against rat PC12 cells at 25 uM after 24 hrs by MTT assay; assay type: cell-based; settings: pc-12, 24 h
# [15] = system: PC-12; assay: Neuroprotective activity against H2O2-induced apoptosis in rat PC12 cells assessed as late apoptosis cells level at 25 uM after 24 hrs by Annexin V/FITC/propidium iodide staining-based flow cytometry (reference value: 1.9%); assay type: functional
# [16] = system: PC-12; assay: Neuroprotective activity against H2O2-induced apoptosis in rat PC12 cells assessed as viable cells level at 25 uM after 24 hrs by Annexin V/FITC/propidium iodide staining-based flow cytometry (reference value: 96.2%); assay type: functional
# [17] = system: PC-12; assay: Neuroprotective activity against H2O2-induced apoptosis in rat PC12 cells assessed as early apoptosis cells level at 50 uM after 24 hrs by Annexin V/FITC/propidium iodide staining-based flow cytometry (reference value: 1.8%); assay type: functional
# [18] = organism: Homo sapiens; assay: Selectivity index, ratio of IC50 for human MAO-A to IC50 for human MAO-B
# [19] = system: PC-12; assay: Neuroprotective activity against 6-OHDA-induced toxicity in rat PC12 cells assessed as increase in cell viability at 10 to 25 uM pretreated for 24 hrs followed by 6-OHDA challenge measured after 24 hrs by MTT assay; assay type: functional
# [20] = system: PC-12; assay: Antioxidant activity against H2O2-induced oxidative stress in rat PC12 cells assessed as reduction in intracellular ROS levels after 48 hrs by DCFH-DA staining based flow cytometry; assay type: functional, cell-based
# [21] = system: BV-2; assay: Neuroprotective activity against LPS-induced inflammation in mouse BV2 cells assessed as inhibition of LPS-induced NO production at 10 to 25 uM after 24 hrs in presence of LPS by Griess reaction based assay relative to resveratrol; assay type: functional, cell-based
# [22] = system: PC-12; assay: Neuroprotective activity against H2O2-induced apoptosis in rat PC12 cells assessed as viable cells level at 50 uM after 24 hrs by Annexin V/FITC/propidium iodide staining-based flow cytometry (reference value: 96.2%); assay type: functional
# [23] = system: PC-12; assay: Neuroprotective activity against H2O2-induced apoptosis in rat PC12 cells assessed as apoptotic cells at 6.25 uM after 24 hrs by Annexin V/FITC/propidium iodide staining-based flow cytometry (reference value: 52.3%); assay type: functional
# [24] = system: PC-12; assay: Neuroprotective activity against H2O2-induced apoptosis in rat PC12 cells assessed as necrosis cells level at 25 uM after 24 hrs by Annexin V/FITC/propidium iodide staining-based flow cytometry (reference value: 0.1%); assay type: functional
# [25] = system: PC-12; assay: Neuroprotective activity against H2O2-induced apoptosis in rat PC12 cells assessed as late apoptosis cells level at 6.25 uM after 24 hrs by Annexin V/FITC/propidium iodide staining-based flow cytometry (reference value: 1.9%); assay type: functional
# [26] = system: PC-12; assay: Neuroprotective activity against H2O2-induced apoptosis in rat PC12 cells assessed as late apoptosis cells level at 12.5 uM after 24 hrs by Annexin V/FITC/propidium iodide staining-based flow cytometry (reference value: 1.9%); assay type: functional
# [27] = system: PC-12; assay: Neuroprotective activity against H2O2-induced apoptosis in rat PC12 cells assessed as necrosis cells level at 50 uM after 24 hrs by Annexin V/FITC/propidium iodide staining-based flow cytometry (reference value: 0.1%); assay type: functional
# [28] = Antioxidant activity assessed as ABTS radical scavenging activity at 25 uM after 6 mins; assay type: functional
# [29] = Metal chelating activity assessed as compound-Fe3+ complex formation after 30 mins by UV-Vis spectrophotometry based Job's plot
# [30] = system: PC-12; assay: Neuroprotective activity against H2O2-induced cytotoxicity in rat PC12 cells assessed as increase in cell viability at 6.25 to 25 uM preincubated for 24 hrs followed by H2O2 addition and measured after 24 hrs by MTT assay; assay type: functional, cell-based
# [31] = molecular target: Amyloid-beta precursor protein (Homo sapiens) (UniProt P05067); assay: Inhibition of self-induced aggregation of amyloid beta (1 to 42 residues) (unknown origin) at 25 uM incubated for 48 hrs by Thioflavin T fluorescence assay relative to control
# [32] = Metal chelating activity assessed as compound-Cu2+ complex formation after 30 mins by UV-Vis spectrophotometry based Job's plot
# Sequence of Amyloid-beta precursor protein (Homo sapiens) (P05067 whole entry, the tested form may be a part): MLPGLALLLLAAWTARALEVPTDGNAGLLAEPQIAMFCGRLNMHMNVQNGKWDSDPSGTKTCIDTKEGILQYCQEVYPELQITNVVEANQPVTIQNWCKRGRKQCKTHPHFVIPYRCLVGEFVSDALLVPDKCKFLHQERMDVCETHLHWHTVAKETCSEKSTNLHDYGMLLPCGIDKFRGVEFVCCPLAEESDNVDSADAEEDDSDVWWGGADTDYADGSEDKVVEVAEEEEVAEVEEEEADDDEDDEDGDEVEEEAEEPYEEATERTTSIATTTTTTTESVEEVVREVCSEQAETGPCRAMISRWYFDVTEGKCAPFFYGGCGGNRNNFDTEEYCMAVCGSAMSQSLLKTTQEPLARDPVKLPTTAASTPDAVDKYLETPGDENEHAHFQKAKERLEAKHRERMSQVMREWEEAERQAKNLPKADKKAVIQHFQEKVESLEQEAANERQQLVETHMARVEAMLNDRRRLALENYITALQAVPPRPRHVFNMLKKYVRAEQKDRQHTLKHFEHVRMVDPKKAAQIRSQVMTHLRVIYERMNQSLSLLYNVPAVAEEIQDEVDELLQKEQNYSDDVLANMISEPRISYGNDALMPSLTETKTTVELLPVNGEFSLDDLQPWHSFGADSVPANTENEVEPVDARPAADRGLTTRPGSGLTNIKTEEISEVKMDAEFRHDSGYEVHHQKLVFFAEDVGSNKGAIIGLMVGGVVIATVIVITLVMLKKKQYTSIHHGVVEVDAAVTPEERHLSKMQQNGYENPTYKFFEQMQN
structure (smiles),measurement,setting,value
Oc1ccc(/C=N/c2ccc(OCc3ccccc3)cc2)c(O)c1O,Activity,[1],26.7%
same,Activity,[2],11.2%
same,Activity,[3],8.5%
same,log K,[4],6.3
same,Activity,[5],29.9%
same,Activity,[6],25.7%
same,Activity,[7],0.4%
same,Activity,[8],69.8%
same,Activity,[9],60.6%
same,Activity,[10],2.3%
same,Activity,[11],6.1%
same,Activity,[12],0.8%
same,IC50,[13],43.4 µM
same,Activity,[14],Non-Toxic
same,Activity,[15],2.7%
same,Activity,[16],87.7%
same,Activity,[17],3.7%
same,Ratio IC50,[18],> 57.8
same,Activity,[19],65.9 - 75.4%
same,Activity,[20],Dose-dependent effect
same,Activity,[21],Active
same,Activity,[22],91.1%
same,Activity,[23],38.6%
same,Activity,[24],1.1%
same,Activity,[25],11.9%
same,Activity,[26],4.2%
same,Activity,[27],3%
same,Activity (umolequiv/umol),[28],0.67
same,log K,[29],6.19
same,Activity,[30],Active
same,inhibition,[31],91.3%
same,log K,[32],8.01
